Test [1] relates to PC12 cells. Particulars: Kuai et al. 2011; cited from earlier work.
The target of test [2] is T1, AAK1 (Homo sapiens, UniProt Q2M2I8).
T1 construct: expressed in transfected cells; host or cells: HEK293F
The test can be described thus: HEK281 cell-based assay (phospho-mu2 Western blot in transfected HEK293F cells). The conditions noted are these: HEK293F cells transfected with human AAK1 and AP2M1, 3 hours, read-out: CBA IC50. The protocol: HEK293F cells were cultured in media containing DMEM (Gibco, cat. #11965), 10% FBS (SAFC Biosciences, cat. #12103C), 1×GPS (glutamine, penicillin and streptomycin). On day one, cells were plated on a 10 cm dish so that they are ˜80% confluent at time of transfection. Roughly 12 million cells were in a 10 cm dish at time of transfection. On day two, each dish was transfected with 48 ug DNA and 144 ul Lipofectamine 2000 (Invitrogen, cat.#11668-019). The DNA was comprised of a mixture (per 10 cm dish) containing 3 ug AAK1/HA/pIRES (full length human, NCBI accession no. NP_055726.2), 45 μg Flag/AP2MI/pcDNA (full length human), and 1.5 ml OPTI-MEM. The Lipofectamine 2000 is made up of a mixture (per 10 cm dish) containing 144 μl Lipofectamine 2000 and 1.5 ml OPTI-MEM. Each mixture was transferred to individual 15 ml tubes and incubated at room temperature for 5 minutes, and then the two mixes were combined and incubated at room temperature for 20 minutes. Growth media was then aspirated from each 10 cm plate and replaced with 10 ml of DMEM+10% FBS (no GPS). Finally, 3 ml DNA/Lipofectamine mix was added to each 10 cm dish and mix gently followed by incubate of plate overnight at 37° C. and 5% CO2.
On day three, compounds were diluted in 100% DMSO at 1000× final concentration, followed by 3-fold serial dilutions for a total of 5 concentrations tested. Four compounds were tested per 10 cm dish. One ul of each compound dilution was then pipetted into a deep-well, 96-well plate, followed by addition of 500 μl DMEM+0.5% FBS into each well for a 2× final concentration of each compound. Cells were resuspended in a 10 cm dish by simple pipetting (HEK293 cells come off the plate that easy at this point) and then transferred to a 50 ml conical tube and pelleted by centrifugation at 1000 rpm for 5 min. Cell pellets were then resuspended in 2.75 ml DMEM+0.5% FBS per 10 cm dish and 100 μl of cell suspension transferred into each well of 96-well TC plate. Finally, 100 μl of 2× compound diluted in DMEM+0.5% FBS was then added into wells containing cell suspension for a 1× final concentration. Plates were then incubated at 37° C. and 5% CO2 for 3 hours followed by transferring of cell suspensions from each well into 12-tube PCR strips. The PCR strips were spun in a tip rack at 1000 rpm for 5 minutes to pellet cells and media was then removed by pipetting without disturbing the cell pellet.
To prepare for Western Blot analysis, cell pellets were resuspend in 40 ul 1×LDS-PAGE sample buffer (Invitrogen, cat.# NP0008)+2× Halt phophatase and protease inhibitor cocktail (Thermo Scientific, cat.#1861284), followed by sonicating each with microtip sonicator set at 5 for 8-10 seconds. Five ul of 10× NuPage Sample Reducing Agent (with […]) was to each sample followed by heat denaturing at 70 C for 10 min on PCR machine. A total of 10 μl per sample was loaded into each lane of a 4-20% Tris-Glycine Criterion 26-well gel (Biorad, cat.#345-0034) for the phospho-mu2 blot and 10 μl per lane in a 4-12% Bis-Tris (+MES buffer) NuPAGE 26-well gel (Invitrogen, cat.# WG1403BX10) for the mu2 blot. For controls, 2 ng of phospho-mu2 or 20 ng mu2/Flag proteins were loaded in the last well of each gel. After SDS-PAGE, samples on each gel were transferred to PVDF membrane using an iBlot and membranes were blocked for one hour in TBST+5% milk, followed by wash 3× for 5-10 min with TBST. Criterion gels were probed with rabbit anti-phospho-mu2 (1:5000; a rabbit polyclonal antibody produced by New England Peptide and affinity purified at Lexicon) in TBST+5% BSA, whereas, NuPAGE gels were probed with mouse anti-Flag (1:500; Sigma, cat.# F1804) in TBST+5% milk, and these primary antibodies were incubated overnight at 4° C. on a rocker. […]

The target in test [3] is T2, AAK1 (full-length human protein) (Homo sapiens, UniProt Q2M2I8).
T2 construct: NP_055726.2
The test can be described thus: P81 filter plate assay. The class given is biochemical. Particulars: 0.2 nM 2x AAK1, Mu2 substrate, 33P-ATP. The protocol:
Compounds were serially diluted into a Labcyte LDV plate (Labcyte, cat# LP-0200) using a Mutiprobe (PerkinElmer) and Biomek FX (Beckman Coulter) so that the highest compound concentration was at 96 μM. Compounds were then pinged (75 nL per well) into a Greiner 384-well reaction plate (Greiner, #781076) using an ECHO 550 Liquid Handler (Labcyte). A total of 12 μl reaction buffer (IMAP buffer containing Tween and DTT, from Molecular Devices) was then added to each well of columns 1 and 13 for the negative controls and 12 μl of 2×AAK1 (0.2 nM full-length human protein, NCBI accession no. NP_055726.2) was added to the remaining wells. Enzyme was then pre-incubated with compound for 10 minutes at RT. Reactions were initiated upon Minitrak (PerkinElmer) addition of 12 μl substrate mix containing 2×Mu2 (0.2 μM, full length human protein), 2× cold ATP (2 μM), and 1.3 μCi of hot ^33P-ATP. Reactions proceeded for one hour at RT. Meanwhile, Millipore 384-well P81 filter plates (Millipore, catalog # MZPHN0W10) were placed on a plate washer (Zoom ZW, from Titertek) and pre-wet with 50 μl […] phosphoric acid. Kinase reactions were then stopped upon addition of 24 μl of 2% phosphoric acid to each well and the Minitrak was then used to transfer 40 μl from each well into the pre-wet Millipore 384-well P81 filter plates. Reaction mixtures were incubated for 10 minutes at room temperature in the P81 plates, followed by washing five times with 100 μl/well of 1% phosphoric acid using the Zoom filter washer. The bottom of each filter plate was sealed followed by addition of 20 μl Microscint 40 to each well, sealing the top of the plates with Flashplate cover, and then waiting one hour until reading on the TopCount (PerkinElmer).

Where two headings read alike, the source gives them in different places.

T1 sequence (Q2M2I8 1-863 isoform Q2M2I8-2): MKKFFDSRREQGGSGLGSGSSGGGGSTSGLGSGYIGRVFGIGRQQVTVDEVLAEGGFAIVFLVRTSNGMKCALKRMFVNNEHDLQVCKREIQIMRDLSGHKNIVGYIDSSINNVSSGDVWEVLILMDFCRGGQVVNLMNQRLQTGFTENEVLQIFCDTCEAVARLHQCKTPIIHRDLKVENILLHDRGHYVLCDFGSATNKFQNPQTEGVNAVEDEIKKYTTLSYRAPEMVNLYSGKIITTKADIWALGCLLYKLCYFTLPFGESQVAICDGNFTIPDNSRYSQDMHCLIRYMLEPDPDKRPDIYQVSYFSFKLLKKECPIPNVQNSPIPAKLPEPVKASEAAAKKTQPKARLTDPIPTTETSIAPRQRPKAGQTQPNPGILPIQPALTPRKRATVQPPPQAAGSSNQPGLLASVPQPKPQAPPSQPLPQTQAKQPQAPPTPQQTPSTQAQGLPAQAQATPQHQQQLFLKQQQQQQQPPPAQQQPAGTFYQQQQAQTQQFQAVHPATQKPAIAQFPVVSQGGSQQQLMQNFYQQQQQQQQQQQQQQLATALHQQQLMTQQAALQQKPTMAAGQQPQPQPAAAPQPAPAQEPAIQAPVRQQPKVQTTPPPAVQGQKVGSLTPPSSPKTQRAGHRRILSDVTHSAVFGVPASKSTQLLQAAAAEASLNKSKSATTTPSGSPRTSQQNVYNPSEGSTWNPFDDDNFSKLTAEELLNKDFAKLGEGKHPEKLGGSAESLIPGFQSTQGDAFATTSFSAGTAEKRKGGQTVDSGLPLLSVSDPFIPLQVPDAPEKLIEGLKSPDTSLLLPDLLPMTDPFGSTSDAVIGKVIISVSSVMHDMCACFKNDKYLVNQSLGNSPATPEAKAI
T2 sequence (Q2M2I8 1-863 isoform Q2M2I8-2): as above

`COC(=O)[C@@]1(O)C[C@H]2O[C@]1(C)n1c3ccccc3c3c4c(c5c6ccccc6n2c5c31)C(=O)NC4` [K252a]: in test [1], the “Effect on Neuregulin-1 induced neurite outgrowth” value is reported as “potentiation of Neuregulin-1 induced neurite outgrowth”. Regarding `COc1ncccc1-c1cnn2ccc(C3=CCN(C(=O)OC(C)C)CC3)nc12` [isopropyl 4-(3-(2-methoxypyridin-3-yl)pyrazolo[1,5-a]pyrimidin-5-yl)-5,6-dihydropyridine-1(2H)-carboxylate], the IC50 in test [2] (class symbols) and in test [3] (class symbols) was ≤ 10 nM in each case. With `CCOc1ncccc1-c1cnn2ccc(-c3ccn(CCC(C)C)c(=O)c3)nc12` [4-(3-(2-ethoxypyridin-3-yl)pyrazolo[1,5-a]pyrimidin-5-yl)-1-isopentylpyridin-2(1H)-one], the IC50 in test [2] (class symbols) and in test [3] (class symbols) was ≤ 10 nM each time. `CC(C)CCn1ccc(-c2ccn3ncc(Cl)c3n2)cc1=O` [4-(3-chloropyrazolo[1,5-a]pyrimidin-5-yl)-1-isopentylpyridin-2(1H)-one]: the IC50 is ≤ 10 nM in test [2] (class symbols) and ≤ 100 nM in test [3] (class symbols).

In the case of `COc1ncccc1-c1cnn2ccc(-c3ccn(CC(C)C)c(=O)c3)nc12` [1-isobutyl-4-(3-(2-methoxypyridin-3-yl)pyrazolo[1,5-a]pyrimidin-5-yl)pyridin-2(1H)-one], the IC50 in test [2] (class symbols) and in test [3] (class symbols) was ≤ 10 nM each time. As for `COc1ncccc1-c1cnn2ccc(-c3ccnc(OC(C)C)c3)nc12` [5-(2-isopropoxypyridin-4-yl)-3-(2-methoxypyridin-3-yl)pyrazolo[1,5-a]pyrimidine], the IC50 is ≤ 10 nM in test [2] (class symbols) and ≤ 100 nM in test [3] (class symbols).

Regarding `COc1nc(C)ccc1-c1cnn2ccc(-c3ccn(CCC(C)C)c(=O)c3)nc12` [1-isopentyl-4-(3-(2-methoxy-6-methylpyridin-3-yl)pyrazolo[1,5-a]pyrimidin-5-yl)pyridin-2(1H)-one], the IC50 in test [2] (class symbols) and in test [3] (class symbols) was ≤ 10 nM throughout.

For `COc1ccc(F)cc1-c1cnn2ccc(-c3ccn(CCC(C)C)c(=O)c3)nc12` [4-(3-(5-fluoro-2-methoxyphenyl)pyrazolo[1,5-a]pyrimidin-5-yl)-1-isopentylpyridin-2(1H)-one], the IC50 in test [2] (class symbols) and in test [3] (class symbols) was ≤ 10 nM each time. Take `COc1ncc(F)cc1-c1cnn2ccc(-c3ccn(CCC(C)(C)C)c(=O)c3)nc12` [1-(3,3-dimethylbutyl)-4-(3-(5-fluoro-2-methoxypyridin-3-yl)pyrazolo[1,5-a]pyrimidin-5-yl)pyridin-2(1H)-one]: the IC50 in test [2] (class symbols) and in test [3] (class symbols) was ≤ 10 nM each time. For `CC(C)OC(=O)N(C)CCCc1ccn2nccc2n1` [isopropyl methyl(3-(pyrazolo[1,5-a]pyrimidin-5-yl)propyl)carbamate], the IC50 is > 300 nM in test [2] (numeric bounds) and > 100 nM in test [3] (numeric bounds). Consider `CC(C)CCn1ccc(-c2ccn3ncc(I)c3n2)cc1=O` [4-(3-iodopyrazolo[1,5-a]pyrimidin-5-yl)-1-isopentylpyridin-2(1H)-one], for which the IC50 in test [2] (class symbols) and in test [3] (class symbols) was ≤ 10 nM throughout.

For the molecule `COc1ncc(F)cc1-c1cnn2ccc(-c3ccn(CCC(C)C)c(=O)c3)nc12` [4-(3-(5-fluoro-2-methoxypyridin-3-yl)pyrazolo[1,5-a]pyrimidin-5-yl)-1-isopentylpyridin-2(1H)-one], the IC50 in test [2] (class symbols) and in test [3] (class symbols) was ≤ 10 nM in each case. Take `COc1ncccc1-c1cnn2ccc(-c3ccn(CCN4CCOCC4)c(=O)c3)nc12` [4-(3-(2-methoxypyridin-3-yl)pyrazolo[1,5-a]pyrimidin-5-yl)-1-(2-morpholinoethyl)pyridin-2(1H)-one]: the IC50 in test [2] (class symbols) and in test [3] (class symbols) was ≤ 10 nM throughout. On to `COCCn1ccc(-c2ccn3ncc(-c4cccnc4OC)c3n2)cc1=O` [1-(2-methoxyethyl)-4-(3-(2-methoxypyridin-3-yl)pyrazolo[1,5-a]pyrimidin-5-yl)pyridin-2(1H)-one], for which the IC50 in test [2] (class symbols) and in test [3] (class symbols) was ≤ 10 nM each time. For the molecule `COc1nc(C)ccc1-c1cnn2ccc(-c3ccn(CCC(F)(F)F)c(=O)c3)nc12` [4-(3-(2-methoxy-6-methylpyridin-3-yl)pyrazolo[1,5-a]pyrimidin-5-yl)-1-(3,3,3-trifluoropropyl)pyridin-2(1H)-one], the IC50 was ≤ 10 nM in test [2] (class symbols) and ≤ 100 nM in test [3] (class symbols). For `COc1cc(-c2ccn3ncc(-c4cc(F)ccc4OC)c3n2)ccn1` [3-(5-fluoro-2-methoxyphenyl)-5-(2-methoxypyridin-4-yl)pyrazolo[1,5-a]pyrimidine], the IC50 was ≤ 10 nM in test [2] (class symbols) and ≤ 1000 nM in test [3] (class symbols).

Values taken from patent US9862724B2, “Pyrazolo[1,5-a]pyrimidine-based compounds, compositions comprising them, and methods of their use” (LEXICON PHARMACEUTICALS, INC., priority 2013, dated 2018).
